Test results: ChEMBL document CHEMBL1125526, “Penicillin derived C2-symmetric dimers as novel inhibitors of HIV-1 proteinase” (J Med Chem, 1992)

target: Human immunodeficiency virus type 1 protease (Human immunodeficiency virus 1, UniProt Q72874); experiment: Inhibitory activity towards HIV-1 protease

Compound | IC50 [nM]
CC1(C)S[C@H]([C@H](NC(=O)Cc2ccccc2)C(=O)NCc2ccccc2)N[C@H]1C(=O)NCCNC(=O)[C@@H]1N[C@@H]([C@H](NC(=O)Cc2ccccc2)C(=O)NCc2ccccc2)SC1(C)C | 0.9
CCNC(=O)[C@@H]1N[C@@H]([C@H](NC(=O)Cc2ccccc2)C(=O)OC)SC1(C)C | > 63000
CC1(C)S[C@@H]2[C@H](NC(=O)Cc3ccccc3)C(=O)N2[C@H]1C(=O)NCCNC(=O)[C@@H]1N2C(=O)[C@@H](NC(=O)Cc3ccccc3)[C@H]2SC1(C)C | > 70000
COC(=O)[C@@H](NC(=O)Cc1ccccc1)[C@@H]1N[C@@H](C(=O)NCCCNC(=O)[C@@H]2N[C@@H]([C@H](NC(=O)Cc3ccccc3)C(=O)OC)SC2(C)C)C(C)(C)S1 | > 12000
COC(=O)[C@@H](NC(=O)Cc1ccccc1)[C@@H]1N[C@@H](C(=O)NCCNC(=O)[C@@H]2N[C@@H]([C@H](NC(=O)Cc3ccccc3)C(=O)OC)SC2(C)C)C(C)(C)S1 | 60
CCNC(=O)[C@@H](NC(=O)Cc1ccccc1)[C@@H]1N[C@@H](C(=O)NCCNC(=O)[C@@H]2N[C@@H]([C@H](NC(=O)Cc3ccccc3)C(=O)NCC)SC2(C)C)C(C)(C)S1 | 4.8
COC(=O)[C@@H](NC(=O)Cc1ccccc1)[C@@H]1N[C@@H](C(=O)NCCNC(=O)[C@@H]2N3C(=O)C(NC(=O)Cc4ccccc4)[C@H]3SC2(C)C)C(C)(C)S1 (stereo partly specified) | 500
CCNC(=O)[C@@H](NC(=O)Cc1ccccc1)[C@@H]1N[C@@H](C(=O)OCCOC(=O)[C@@H]2N[C@@H]([C@H](NC(=O)Cc3ccccc3)C(=O)NCC)SC2(C)C)C(C)(C)S1 | > 12000
COC(=O)[C@@H](NC(=O)Cc1ccccc1)[C@@H]1N[C@@H](C(=O)NCCNC(C)=O)C(C)(C)S1 | > 55000
COC(=O)[C@@H](NC(=O)Cc1ccccc1)[C@@H]1N[C@@H](C(=O)NNC(=O)[C@@H]2N[C@@H]([C@H](NC(=O)Cc3ccccc3)C(=O)OC)SC2(C)C)C(C)(C)S1 | 6800
CC1(C)S[C@H]([C@H](NC(=O)Cc2ccccc2)C(N)=O)N[C@H]1C(=O)NCCNC(=O)[C@@H]1N[C@@H]([C@H](NC(=O)Cc2ccccc2)C(N)=O)SC1(C)C | 3
